Data taken from patent US20120277209A1, “PYRAZINE COMPOUNDS AS PHOSPHODIESTERASE 10 INHIBITORS” (Amgen Inc., priority 2009, published 2012).

Target: PDE10 (UniProt Q9Y233)
Experiment: PDE10 enzyme inhibition, IMAP TR-FRET assay (MPDE10A7 Enzyme Activity and Inhibition)
Format: biochemical
Settings: IC50 class against PDE10; read-out: IC50
Summary of the method: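 IMAP TR-FRET read-out of PDE10 hydrolysis of fluorescein-cAMP or -cGMP (60 min, room temperature), after a 30 min compound-enzyme preincubation. Enzyme source was PDE10A or tissue homogenate. Averaged IC50s are reported as five range classes.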

Compound	IC50 [nM]
O=C(c1ccc(Oc2nccnc2-c2ccnc3ccccc23)cc1)c1nc2ccccc2[nH]1 [Example 129, (1H-benzo[d]imidazol-2-yl)(4-(3-(quinolin-4-yl)pyrazin-2-yloxy)phenyl)methanone]	25 to 100
O=C(c1ccc(Oc2nccnc2-c2cccc3ncccc23)cc1)c1nc2ccccc2[nH]1 [Example 130, (1H-benzo[d]imidazol-2-yl)(4-(3-(quinolin-5-yl)pyrazin-2-yloxy)phenyl)methanone]	25 to 100
O=C(c1ccc(Oc2nccnc2C2=CCOCC2)cc1)c1nc2ncccc2[nH]1 [Example 131, (4-(3-(3,6-dihydro-2H-pyran-4-yl)pyrazin-2-yloxy)phenyl)(1H-imidazo[4,5-b]pyridin-2-yl)methanone]	25 to 100
CC1(C)C=C(c2nccnc2Oc2ccc(C(=O)c3nc4ccccc4[nH]3)cc2)C(=O)CC1 [Example 132, 2-(3-(4-(1H-benzo[d]imidazole-2-carbonyl)phenoxy)pyrazin-2-yl)-4,4-dimethylcyclohex-2-enone]	25 to 100
c1ccc2sc(Nc3ccc(Oc4nccnc4-c4ccc(N5CCOCC5)nc4)cc3)nc2c1 [Example 138, N-(4-(3-(6-morpholinopyridin-3-yl)pyrazin-2-yloxy)phenyl)benzo[d]thiazol-2-amine]	100 to 250
c1ccc2sc(Nc3ccc(Oc4nccnc4-c4ccc(N5CCOCC5)cc4)cc3)nc2c1 [Example 139, N-(4-(3-(4-morpholinophenyl)pyrazin-2-yloxy)phenyl)benzo[d]thiazol-2-amine]	100 to 250
c1ccc2sc(Nc3ccc(Oc4nccnc4-c4cnc5[nH]ccc5c4)cc3)nc2c1 [Example 141, N-(4-(3-(1H-pyrrolo[2,3-b]pyridin-5-yl)pyrazin-2-yloxy)phenyl)benzo[d]thiazol-2-amine]	25 to 100
OCc1ccc(-c2nccnc2Oc2ccc(Nc3nc4ccccc4s3)cc2)cn1 [Example 146, (5-(3-(4-(benzo[d]thiazol-2-ylamino)phenoxy)pyrazin-2-yl)pyridin-2-yl)methanol]	25 to 100
c1ccc2sc(Nc3ccc(Oc4nccnc4-c4cccc5ncccc45)cc3)nc2c1 [Example 147, N-(4-(3-(quinolin-5-yl)pyrazin-2-yloxy)phenyl)benzo[d]thiazol-2-amine]	25 to 100
COc1cnccc1-c1nccnc1Oc1ccc(Nc2nc3ccccc3s2)cc1 [Example 149, N-(4-(3-(3-methoxypyridin-4-yl)pyrazin-2-yloxy)phenyl)benzo[d]thiazol-2-amine]	< 25
COc1cccc(-c2nccnc2Oc2ccc(Nc3nc4ccccc4s3)cc2)c1 [Example 150, N-(4-(3-(3-methoxyphenyl)pyrazin-2-yloxy)phenyl)benzo[d]thiazol-2-amine]	25 to 100
COc1ncccc1-c1nccnc1Oc1ccc(Nc2nc3cccc(F)c3s2)cc1 [Example 151, 7-fluoro-N-(4-(3-(2-methoxypyridin-3-yl)pyrazin-2-yloxy)phenyl)benzo[d]thiazol-2-amine]	25 to 100
COc1cc(-c2nccnc2Oc2ccc(Nc3nc4ccccc4s3)cc2)ccn1 [Example 152, N-(4-(3-(2-methoxypyridin-4-yl)pyrazin-2-yloxy)phenyl)benzo[d]thiazol-2-amine]	< 25
COc1ncccc1-c1nccnc1Oc1ccc(Nc2nc3ccc(F)cc3s2)cc1 [Example 153, 6-fluoro-N-(4-(3-(2-methoxypyridin-3-yl)pyrazin-2-yloxy)phenyl)benzo[d]thiazol-2-amine]	25 to 100
COc1ncccc1-c1nccnc1Oc1ccc(Nc2nc3cc(F)ccc3s2)cc1 [Example 154, 5-fluoro-N-(4-(3-(2-methoxypyridin-3-yl)pyrazin-2-yloxy)phenyl)benzo[d]thiazol-2-amine]	25 to 100
COc1ncccc1-c1nccnc1Oc1ccc(Nc2nc3ccccc3s2)cc1 [Example 155, N-(4-(3-(2-methoxypyridin-3-yl)pyrazin-2-yloxy)phenyl)benzo[d]thiazol-2-amine]	< 25
COc1cncc(-c2nccnc2Oc2ccc(Nc3nc4ccccc4s3)cc2)c1 [Example 156, N-(4-(3-(5-methoxypyridin-3-yl)pyrazin-2-yloxy)phenyl)benzo[d]thiazol-2-amine]	25 to 100
COc1ncccc1-c1nccnc1Oc1ccc(Nc2nc3ccccc3s2)c(F)c1 [Example 157, N-(2-fluoro-4-(3-(2-methoxypyridin-3-yl)pyrazin-2-yloxy)phenyl)benzo[d]thiazol-2-amine]	25 to 100
Fc1cc(-c2nccnc2Oc2ccc(Nc3nc4ccccc4s3)c(F)c2)ccn1 [Example 158, N-(2-fluoro-4-(3-(2-fluoropyridin-4-yl)pyrazin-2-yloxy)phenyl)benzo[d]thiazol-2-amine]	25 to 100

Next, values leading:

IC50 [nM]	Compound
< 25	COc1cncc(-c2nccnc2Oc2ccc(C(=O)c3nc4ccccc4[nH]3)cc2)c1 [Example 118, (1H-benzo[d]imidazol-2-yl)(4-(3-(5-methoxypyridin-3-yl)pyrazin-2-yloxy)phenyl)methanone]
< 25	COc1ncccc1-c1nccnc1Oc1ccc(C(=O)c2nc3ccccc3n2C)cc1 [Example 119, (4-(3-(2-methoxypyridin-3-yl)pyrazin-2-yloxy)phenyl)(1-methyl-1H-benzo[d]imidazol-2-yl)methanone]
< 25	COc1cc(-c2nccnc2Oc2ccc(C(=O)c3nc4ccccc4[nH]3)cc2)ccn1 [Example 120, (1H-benzo[d]imidazol-2-yl)(4-(3-(2-methoxypyridin-4-yl)pyrazin-2-yloxy)phenyl)methanone]
< 25	COc1ccc(-c2nccnc2Oc2ccc(C(=O)c3nc4ccccc4[nH]3)cc2)cn1 [Example 121, (1H-benzo[d]imidazol-2-yl)(4-(3-(6-methoxypyridin-3-yl)pyrazin-2-yloxy)phenyl)methanone]
< 25	COc1ncccc1-c1nccnc1Oc1ccc(C(=O)c2nc3ccccc3[nH]2)cc1 [Example 122, (1H-benzo[d]imidazol-2-yl)(4-(3-(2-methoxypyridin-3-yl)pyrazin-2-yloxy)phenyl)methanone]
< 25	O=C(c1ccc(Oc2nccnc2-c2cccnc2)cc1)c1nc2ccccc2[nH]1 [Example 123, (1H-benzo[d]imidazol-2-yl)(4-(3-(pyridin-3-yl)pyrazin-2-yloxy)phenyl)methanone]
< 25	O=C(c1ccc(Oc2nccnc2-c2ccncc2)cc1)c1nc2ccccc2[nH]1 [Example 124, (1H-benzo[d]imidazol-2-yl)(4-(3-(pyridin-4-yl)pyrazin-2-yloxy)phenyl)methanone]
< 25	N#Cc1cccc(-c2nccnc2Oc2ccc(C(=O)c3nc4ccccc4[nH]3)cc2)c1 [Example 125, 3-(3-(4-(1H-benzo[d]imidazole-2-carbonyl)phenoxy)pyrazin-2-yl)benzonitrile]
< 25	COC(=O)c1ccc(-c2nccnc2Oc2ccc(C(=O)c3nc4ccccc4[nH]3)cc2)cc1 [Example 126, methyl 4-(3-(4-(1H-benzo[d]imidazole-2-carbonyl)phenoxy)pyrazin-2-yl)benzoate]
< 25	O=C(O)c1ccc(-c2nccnc2Oc2ccc(C(=O)c3nc4ccccc4[nH]3)cc2)cc1 [Example 127, 4-(3-(4-(1H-benzo[d]imidazole-2-carbonyl)phenoxy)pyrazin-2-yl)benzoic acid]
< 25	COc1cccc(-c2nccnc2Oc2ccc(C(=O)c3nc4ccccc4[nH]3)cc2)c1 [Example 128, (1H-benzo[d]imidazol-2-yl)(4-(3-(3-methoxyphenyl)pyrazin-2-yloxy)phenyl)methanone]
< 25	CC(=O)N1CC=C(c2nccnc2Oc2ccc(C(=O)c3nc4ccccc4[nH]3)cc2)CC1 [Example 133, 1-(4-(3-(4-(1H-benzo[d]imidazole-2-carbonyl)phenoxy)pyrazin-2-yl)-5,6-dihydropyridin-1(2H)-yl)ethanone]
< 25	COc1ncccc1-c1nccnc1Oc1ccc(C(=O)c2nc3ccccc3n2CCF)cc1 [Example 134, (1-(2-fluoroethyl)-1H-benzo[d]imidazol-2-yl)(4-(3-(2-methoxypyridin-3-yl)pyrazin-2-yloxy)phenyl)methanone]
< 25	Cc1cc(-c2nccnc2Oc2ccc(Nc3nc4ccccc4s3)cc2)ccn1 [Example 135, N-(4-(3-(2-methylpyridin-4-yl)pyrazin-2-yloxy)phenyl)benzo[d]thiazol-2-amine]
< 25	O=C1C=C(c2nccnc2Oc2ccc(Nc3nc4ccccc4s3)c(F)c2)CCC1 [Example 136, 3-(3-(4-(benzo[d]thiazol-2-ylamino)-3-fluorophenoxy)pyrazin-2-yl)cyclohex-2-enone]
< 25	Cc1ccc(-c2nccnc2Oc2ccc(Nc3nc4ccccc4s3)cc2)cn1 [Example 140, N-(4-(3-(6-methylpyridin-3-yl)pyrazin-2-yloxy)phenyl)benzo[d]thiazol-2-amine]
< 25	N#Cc1ccc(-c2nccnc2Oc2ccc(Nc3nc4ccccc4s3)cc2)cn1 [Example 142, 5-(3-(4-(benzo[d]thiazol-2-ylamino)phenoxy)pyrazin-2-yl)picolinonitrile]
< 25	c1ccc2sc(Nc3ccc(Oc4nccnc4-c4cncnc4)cc3)nc2c1 [Example 143, N-(4-(3-(pyrimidin-5-yl)pyrazin-2-yloxy)phenyl)benzo[d]thiazol-2-amine]
< 25	COc1ncc(-c2nccnc2Oc2ccc(Nc3nc4ccccc4s3)cc2)cn1 [Example 144, N-(4-(3-(2-methoxypyrimidin-5-yl)pyrazin-2-yloxy)phenyl)benzo[d]thiazol-2-amine]
< 25	Clc1ccc(-c2nccnc2Oc2ccc(Nc3nc4ccccc4s3)cc2)cn1 [Example 145, N-(4-(3-(6-chloropyridin-3-yl)pyrazin-2-yloxy)phenyl)benzo[d]thiazol-2-amine]
< 25	c1cncc(-c2nccnc2Oc2ccc(Nc3nc4ccccc4s3)cc2)c1 [Example 148, N-(4-(3-(pyridin-3-yl)pyrazin-2-yloxy)phenyl)benzo[d]thiazol-2-amine]
